Columns and labels:
Test in all cases: Test D controlled growth environment herbicide test, pre- and postemergence
Format in all cases: in vivo
[1] = tested on: bromegrass, downy (downy bromegrass, Bromus tectorum)
Outline: (§1)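 Pre-emergence: seeds sown in silt loam soil were sprayed with compound in a non-phytotoxic solvent mix containing surfactant. Post-emergence: plants at 2 to 18 cm (1- to 4-leaf stage) in peat moss/vermiculite medium got the same formulation. Visual 0–100 rating versus controls after 14 to 21 d.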

[2] = tested on: radish, wild (wild radish, Raphanus raphanistrum)
Outline: as §1

[3] = tested on: deadnettle (henbit deadnettle, Lamium amplexicaule)
Outline: as §1

[4] = tested on: chamomile (scentless chamomile, Matricaria inodora)
Outline: as §1

[5] = tested on: oat, wild (wild oat, Avena fatua)
Outline: as §1

[6] = tested on: barley, spring (spring barley, Hordeum vulgare)
Outline: as §1

[7] = tested on: wheat, spring (spring wheat, Triticum aestivum)
Outline: as §1

[8] = tested on: field violet (Viola arvensis)
Outline: as §1

[9] = tested on: windgrass (Apera spica-venti)
Outline: as §1

[10] = tested on: oilseed rape (Brassica napus)
Outline: as §1

[11] = tested on: mustard, wild (wild mustard, Sinapis arvensis)
Outline: as §1

[12] = tested on: speedwell (bird's-eye speedwell, Veronica persica)
Outline: as §1

[13] = tested on: lambsquarters (Chenopodium album)
Outline: as §1

[14] = Postemergence, 31 g ai/ha, scale 0 to 100 (0 no effect, 100 complete control)
[15] = Postemergence, 125 g ai/ha, visual rating on scale 0 (no effect) to 100 (complete control), 14 to 21 d
[16] = Postemergence, 250 g ai/ha, scale 0 to 100 (0 no effect, 100 complete control)
[17] = Preemergence, 62 g ai/ha, scale 0 to 100 (0 no effect, 100 complete control)
[18] = Preemergence, 125 g ai/ha, scale 0 to 100 (0 no effect, 100 complete control)
[19] = Preemergence, 250 g ai/ha, scale 0 to 100 (0 no effect, 100 complete control)
[20] = postemergence, 62 g ai/ha, scale 0 to 100, 0 no effect, 100 complete control

For COC(=O)Oc1c(C)nn(C)c(=O)c1-c1c(C)sc2c(C)cc(C)cc12 [Compound 81], the “Bromegrass, Downy plant response rating” value [1, 14] was 15, the “Plant response rating, Bromegrass, Downy” value [1, 15] was 65 and the “Plant response rating, Bromegrass, Downy” value [1, 16] was 75. The “Plant response rating (scale of 0 to 100), Bromegrass, Downy” value ([1]; Preemergence, 31 g ai/ha) was 20, the “Plant response rating, Bromegrass, Downy” value [1, 17] was 45 and the “Plant response rating, Bromegrass, Downy” value [1, 18] was 15. The “Plant response rating, Bromegrass, Downy” value [1, 19] was 75, the “Plant response rating, Bromegrass, Downy” value [1, 20] was 35 and the “Radish, Wild plant response rating” value [2, 14] was 75. For the same compound, the “Plant response rating, Radish, Wild” value [2, 15] was 95, the “Plant response rating, Radish, Wild” value [2, 16] was 100 and the “Plant response rating (scale of 0 to 100), Radish, Wild” value ([2]; Preemergence, 31 g ai/ha) was 0. For the same compound, the “Plant response rating, Radish, Wild” value [2, 17] was 50, the “Plant response rating, Radish, Wild” value [2, 20] was 90 and the “Deadnettle plant response rating” value [3, 14] was 15. For the same compound, the “Plant response rating, Deadnettle” value [3, 15] was 35, the “Plant response rating, Deadnettle” value [3, 16] was 60 and the “Plant response rating (scale of 0 to 100), Deadnettle” value ([3]; Preemergence, 31 g ai/ha) was 0. The “Plant response rating, Deadnettle” value [3, 17] was 0, the “Plant response rating, Deadnettle” value [3, 18] was 5 and the “Plant response rating, Deadnettle” value [3, 19] was 55. The “Plant response rating, Deadnettle” value [3, 20] was 35, the “Chamomile plant response rating” value [4, 14] was 100 and the “Plant response rating, Chamomile” value [4, 15] was 100. For the same compound, the “Plant response rating, Chamomile” value [4, 16] was 100, the “Plant response rating, Chamomile” value [4, 20] was 100 and the “Oat, Wild plant response rating” value [5, 14] was 85. For the same compound, the “Plant response rating, Oat, Wild” value [5, 15] was 95, the “Plant response rating, Oat, Wild” value [5, 16] was 98 and the “Plant response rating (scale of 0 to 100), Oat, Wild” value ([5]; Preemergence, 31 g ai/ha) was 85. The “Plant response rating, Oat, Wild” value [5, 17] was 85, the “Plant response rating, Oat, Wild” value [5, 18] was 85 and the “Plant response rating, Oat, Wild” value [5, 19] was 95. The “Plant response rating, Oat, Wild” value [5, 20] was 90, the “Barley, Spring plant response rating” value [6, 14] was 0 and the “Plant response rating, Barley, Spring” value [6, 15] was 0. For the same compound, the “Plant response rating, Barley, Spring” value [6, 16] was 10, the “Plant response rating (scale of 0 to 100), Barley, Spring” value ([6]; Preemergence, 31 g ai/ha) was 0 and the “Plant response rating, Barley, Spring” value [6, 17] was 0. For the same compound, the “Plant response rating, Barley, Spring” value [6, 18] was 0, the “Plant response rating, Barley, Spring” value [6, 19] was 5 and the “Plant response rating, Barley, Spring” value [6, 20] was 0. For the same compound, the “Wheat, Spring plant response rating” value [7, 14] was 0, the “Plant response rating, Wheat, Spring” value [7, 15] was 0 and the “Plant response rating, Wheat, Spring” value [7, 16] was 20. For the same compound, the “Plant response rating (scale of 0 to 100), Wheat, Spring” value ([7]; Preemergence, 31 g ai/ha) was 0, the “Plant response rating, Wheat, Spring” value [7, 17] was 0 and the “Plant response rating, Wheat, Spring” value [7, 18] was 0. The “Plant response rating, Wheat, Spring” value [7, 19] was 40, the “Plant response rating, Wheat, Spring” value [7, 20] was 0 and the “Field Violet plant response rating” value [8, 14] was 75. The “Plant response rating, Field Violet” value [8, 15] was 100, the “Plant response rating, Field Violet” value [8, 16] was 100 and the “Plant response rating (scale of 0 to 100), Field Violet” value ([8]; Preemergence, 31 g ai/ha) was 75. The “Plant response rating, Field Violet” value [8, 17] was 80, the “Plant response rating, Field Violet” value [8, 18] was 100 and the “Plant response rating, Field Violet” value [8, 19] was 95. For the same compound, the “Plant response rating, Field Violet” value [8, 20] was 85, the “Windgrass plant response rating” value [9, 14] was 70 and the “Plant response rating, Windgrass” value [9, 15] was 90. For the same compound, the “Plant response rating, Windgrass” value [9, 16] was 95, the “Plant response rating (scale of 0 to 100), Windgrass” value ([9]; Preemergence, 31 g ai/ha) was 60 and the “Plant response rating, Windgrass” value [9, 17] was 75. For the same compound, the “Plant response rating, Windgrass” value [9, 18] was 90, the “Plant response rating, Windgrass” value [9, 19] was 100 and the “Plant response rating, Windgrass” value [9, 20] was 80. For the same compound, the “Oilseed Rape plant response rating” value [10, 14] was 70, the “Plant response rating, Oilseed Rape” value [10, 15] was 75 and the “Plant response rating, Oilseed Rape” value [10, 16] was 85. For the same compound, the “Plant response rating (scale of 0 to 100), Oilseed Rape” value ([10]; Preemergence, 31 g ai/ha) was 0, the “Plant response rating, Oilseed Rape” value [10, 17] was 0 and the “Plant response rating, Oilseed Rape” value [10, 18] was 50. For the same compound, the “Plant response rating, Oilseed Rape” value [10, 19] was 100, the “Plant response rating, Oilseed Rape” value [10, 20] was 70 and the “Mustard, Wild plant response rating” value [11, 14] was 50. For the same compound, the “Plant response rating, Mustard, Wild” value [11, 15] was 60, the “Plant response rating, Mustard, Wild” value [11, 16] was 80 and the “Plant response rating (scale of 0 to 100), Mustard, Wild” value ([11]; Preemergence, 31 g ai/ha) was 0. For the same compound, the “Plant response rating, Mustard, Wild” value [11, 17] was 0, the “Plant response rating, Mustard, Wild” value [11, 18] was 0 and the “Plant response rating, Mustard, Wild” value [11, 19] was 50. The “Plant response rating, Mustard, Wild” value [11, 20] was 60, the “Speedwell plant response rating” value [12, 14] was 75 and the “Plant response rating, Speedwell” value [12, 15] was 95. The “Plant response rating, Speedwell” value [12, 16] was 100, the “Plant response rating (scale of 0 to 100), Speedwell” value ([12]; Preemergence, 31 g ai/ha) was 55 and the “Plant response rating, Speedwell” value [12, 17] was 60. The “Plant response rating, Speedwell” value [12, 18] was 100, the “Plant response rating, Speedwell” value [12, 19] was 100 and the “Plant response rating, Speedwell” value [12, 20] was 80. For the same compound, the “Lambsquarters plant response rating” value [13, 14] was 95, the “Plant response rating, Lambsquarters” value [13, 15] was 100 and the “Plant response rating, Lambsquarters” value [13, 16] was 100. For the same compound, the “Plant response rating (scale of 0 to 100), Lambsquarters” value ([13]; Preemergence, 31 g ai/ha) was 55, the “Plant response rating, Lambsquarters” value [13, 17] was 95 and the “Plant response rating, Lambsquarters” value [13, 18] was 70. For the same compound, the “Plant response rating, Lambsquarters” value [13, 19] was 95 and the “Plant response rating, Lambsquarters” value [13, 20] was 100.
